The target in the experiment is T1, hTSHR (Homo sapiens, UniProt P16473).
T1 construct: expressed in transfected cells
Put plainly: hTSHR TR-FRET cAMP Assay (inhibition of M22-stimulated cAMP production). The experiment is classed as cell-based. The note with it: Expi293F Inducible cells stably expressing hTSHR; cAMP HTRF; stimulated with EC80 of anti-TSHR antibody M22; 15 min compound preincubation, 30 min at 37° C.; read-out: Activity (IC50 bins). As to the method: Assays were performed using Expi293F Inducible cells (Invitrogen) stably expressing hTSHR via a pcZeo TetO DNA plasmid. Cell lines were maintained in suspension in Expi293 Expression Medium (ThermoFisher Scientific) supplemented with 10 µg/mL Blasticidin and 10 μg/mL Zeocin and incubated at 37° C., 8% CO2, with shaking. hTSHR cells were incubated overnight at 32° C., 5% C02, with shaking, but […] Doxycycline. Assay-ready aliquots were prepared by harvesting each cell type separately 24-hours post-induction. Cells were pelleted at 4° C., resuspended in Expi293 Expression media+10% DMSO, aliquoted, and kept frozen at −80° C. until ready for use.
For the assay, concentration-response curves of test and reference compounds were added to 384-well plates using an Echo 650 liquid handler (Beckman Coulter) and backfilled with DMSO to a final concentration of 0.5%. cAMP was measured using the cisbio cAMP Gs dynamic HTRF kit (PerkinElmer) according to manufacturer instructions. Aliquots of frozen hTSHR cells were quickly thawed and washed with phosphate-buffered saline (Sigma-Aldrich) to remove media and DMSO. The cells were resuspended in kit-supplied Stimulation Buffer at 0.8×10^6 cells/mL. 7.5 μL of the hTSHR cell dilution were added to each well of the assay plate and incubated with the compounds for 15 minutes in a 37 C, 0% CO2 incubator. 2.5 μL of Vehicle control or an EC80 concentration of recombinant human anti-TSHR antibody (M22, Creative Biolabs) was added to stimulate cAMP production. Cells were incubated with for 30 minutes at 37° C., 0% CO2. Following this incubation, the cells were lysed and accumulated cAMP was detected through the addition of kit-supplied lysis buffer containing d2-reagent and Eu-cryptate antibody. The HTRF signal was quantified using a BMG Clariostar plate reader optimized for HTRF assays. The HTRF ratio was determined by dividing the signal output at […] by that at 620 nm. Data were normalized to the signal produced by the EC80 concentration of either M22 or FSH (0% inhibition) and vehicle (no agonist, 100% inhibition).
In general terms: In TR-FRET formats the signal depends on donor and acceptor labels being close together.

These results are taken from patent US20260365628A1, “SUBSTITUTED 3,4-DIHYDROQUINOLINONE INHIBITORS OF TSHR” (Septerna, Inc., priority 2022, published 2026).

SMILES strings stand for the structures. pIC50: −log10 of the molar value.

T1 sequence (P16473 21-764): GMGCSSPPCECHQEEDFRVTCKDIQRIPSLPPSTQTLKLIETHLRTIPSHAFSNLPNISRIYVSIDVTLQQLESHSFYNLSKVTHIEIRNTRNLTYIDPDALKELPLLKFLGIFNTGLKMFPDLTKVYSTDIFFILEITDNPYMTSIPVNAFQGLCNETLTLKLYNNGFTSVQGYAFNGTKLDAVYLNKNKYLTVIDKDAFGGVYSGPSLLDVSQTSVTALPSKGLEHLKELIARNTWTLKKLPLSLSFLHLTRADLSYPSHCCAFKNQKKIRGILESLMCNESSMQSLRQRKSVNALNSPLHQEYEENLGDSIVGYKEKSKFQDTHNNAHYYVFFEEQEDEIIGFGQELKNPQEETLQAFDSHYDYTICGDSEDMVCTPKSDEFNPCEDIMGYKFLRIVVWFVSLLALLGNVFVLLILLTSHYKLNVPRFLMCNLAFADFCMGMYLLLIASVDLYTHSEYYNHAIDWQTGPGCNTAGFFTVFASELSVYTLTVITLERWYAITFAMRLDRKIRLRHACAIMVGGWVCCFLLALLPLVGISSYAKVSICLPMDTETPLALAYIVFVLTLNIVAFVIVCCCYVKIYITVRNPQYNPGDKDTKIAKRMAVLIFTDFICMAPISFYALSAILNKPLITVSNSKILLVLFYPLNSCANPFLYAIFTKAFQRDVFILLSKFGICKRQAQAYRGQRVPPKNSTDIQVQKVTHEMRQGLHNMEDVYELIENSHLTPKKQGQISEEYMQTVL

As usually defined, the pIC50 is the IC50 on a negative log10 scale, so that one unit is a factor of ten. In the case of `CC1Oc2cc(NC(=O)NC(C)(C)C)ccc2N(Cc2cccc(Cl)c2)C1=O` (single isomer, unassigned) [Example 43], the pIC50 is more than 7.00.

For `C[C@H]1Oc2cc(NC(=O)NC(C)(C)C)ccc2N([C@@H](C)c2cncc(C(F)(F)F)n2)C1=O` (single isomer, unassigned) [Example 306], the pIC50 is less than 6.00.

Consider `C[C@H]1Oc2cc(NC(=O)NC(C)(C)C)ccc2N([C@@H](C)c2ccnc(C(F)(F)F)n2)C1=O` (single isomer, unassigned) [Example 310], for which the negative-log IC50 (pIC50) was 6.00 to 7.00.

Take `C[C@H](c1ccnc(C(F)(F)F)n1)N1C(=O)[C@@H](C)Oc2cc(NC(=O)NC(C)(C)C)ccc21` (single isomer, unassigned) [Example 311]: the negative logarithm of the IC50 (pIC50) was less than 6.00.

As to `C[C@H]1Cc2cc(NC(=O)NC(C)(C)C)c(F)cc2N(Cc2ccccc2)C1=O` (single isomer, unassigned) [Example 333], the pIC50 is less than 6.00.

Turning to `C[C@@H]1Cc2cc(NC(=O)NC(C)(C)C)c(F)cc2N(Cc2ccccc2)C1=O` (single isomer, unassigned) [Example 334], the pIC50 was less than 6.00.

Turning to `CC1Oc2cc(NC(=O)NC(C)(C)C)ccc2N(Cc2cccc(Cl)c2)C1=O` (stereo in doubt) [Example 44, (S)-1-(tert-butyl)-3-(4-(3-chlorobenzyl)-2-methyl-3-oxo-3,4-dihydro-2H-benzo[b][1,4]oxazin-7-yl)urea], the pIC50 was more than 7.00.

For `C[C@@H](c1cccc(C(O)C(F)(F)F)n1)n1c(=O)cnc2cc(NC(=O)NC(C)(C)C)ccc21` (stereo in doubt) [Example 154, 1-(tert-butyl)-3-(2-oxo-1-((S)-1-(6-((R)-2,2,2-trifluoro-1-hydroxyethyl)pyridin-2-yl)ethyl)-1,2-dihydroquinoxalin-6-yl)urea], the pIC50 is 6.00 to 7.00.

Turning to `C[C@@H](c1cccc(OC(F)(F)F)c1)n1c(=O)cnc2cc(NC(=O)C3CCC3(C)C)ccc21` (stereo in doubt) [Example 219, (S)-2,2-dimethyl-N-(2-oxo-1-((S)-1-(3-(trifluoromethoxy)phenyl)ethyl)-1,2-dihydroquinoxalin-6-yl) cyclobutane-1-carboxamide], the pIC50 was more than 7.00.

For `CC(c1cccc(OC(F)(F)F)c1)n1c(=O)cnc2cc(NC(=O)[C@H]3CCC3(C)C)ccc21` (stereo in doubt) [Example 220, (S)-2,2-dimethyl-N-(2-oxo-1-((R)-1-(3-(trifluoromethoxy)phenyl)ethyl)-1,2-dihydroquinoxalin-6-yl) cyclobutane-1-carboxamide], the pIC50 was 6.00 to 7.00.

In the case of `CC1Oc2nc(NC(=O)NC(C)(C)C)c(C(F)(F)F)cc2N(Cc2ccccc2)C1=O` (stereo in doubt) [Example 378, (R)-1-(1-benzyl-3-methyl-2-oxo-7-(trifluoromethyl)-2,3-dihydro-1H-pyrido[2,3-b][1,4]oxazin-6-yl)-3-(tert-butyl)urea], the pIC50 is 6.00 to 7.00.

As to `CC(C)(C)NC(=O)Nc1ccc2c(c1)CCC(=O)N2Cc1ccccc1` [Example 1, 1-(1-benzyl-2-oxo-1,2,3,4-tetrahydroquinolin-6-yl)-3-(tert-butyl)urea], the pIC50 was more than 7.00.

Take `CC(C)(C)NC(=O)Nc1ccc2c(c1)CCC(=O)N2Cc1ccccn1` [Example 2, 1-(tert-butyl)-3-(2-oxo-1-(pyridin-2-ylmethyl)-1,2,3,4-tetrahydroquinolin-6-yl)urea]: the negative logarithm of the IC50 (pIC50) is less than 6.00.

In the case of `CC(c1ccccc1)N1C(=O)CCc2cc(NC(=O)NC(C)(C)C)ccc21` (stereo not shown) [Example 3, 1-(tert-butyl)-3-(2-oxo-1-(1-phenylethyl)-1,2,3,4-tetrahydroquinolin-6-yl)urea], the pIC50 was more than 7.00.

In the case of `Cn1ccc(CN2C(=O)CCc3cc(NC(=O)NC(C)(C)C)ccc32)n1` [Example 4, 1-(tert-butyl)-3-(1-((1-methyl-1H-pyrazol-3-yl)methyl)-2-oxo-1,2,3,4-tetrahydroquinolin-6-yl)urea], the pIC50 is less than 6.00.

On to `CC1Cc2cc(NC(=O)NC(C)(C)C)ccc2N(Cc2ccccc2)C1=O` (stereo not shown) [Example 5, 1-(1-benzyl-3-methyl-2-oxo-1,2,3,4-tetrahydroquinolin-6-yl)-3-(tert-butyl)urea], for which the negative logarithm of the IC50 (pIC50) is more than 7.00.

For the compound `CC(C)(C)NC(=O)Nc1ccc2c(c1)CCC(=O)N2Cc1cccc(Cl)c1` [Example 6, 1-(tert-butyl)-3-(1-(3-chlorobenzyl)-2-oxo-1,2,3,4-tetrahydroquinolin-6-yl)urea], the pIC50 is more than 7.00.

With `CC(C)(C)NC(=O)Nc1ccc2c(c1)OCC(=O)N2Cc1ccccc1` [Example 7, 1-(4-benzyl-3-oxo-3,4-dihydro-2H-benzo[b][1,4]oxazin-7-yl)-3-(tert-butyl)urea], the pIC50 is more than 7.00.

With `CC(C)(C)NC(=O)Nc1ccc2c(c1)CCC(=O)N2Cc1ccccc1Cl` [Example 8, 1-(tert-butyl)-3-(1-(2-chlorobenzyl)-2-oxo-1,2,3,4-tetrahydroquinolin-6-yl)urea], the pIC50 is 6.00 to 7.00.

Consider `CC(C)(C)OC(=O)Nc1ccc2c(c1)CCC(=O)N2Cc1ccccc1` [Example 9, tert-butyl (1-benzyl-2-oxo-1,2,3,4-tetrahydroquinolin-6-yl)carbamate], for which the pIC50 was more than 7.00.

Turning to `CC(C)(C)NC(=O)Nc1ccc2c(c1)C(C)(C)CC(=O)N2Cc1ccccc1` [Example 10, 1-(1-benzyl-4,4-dimethyl-2-oxo-1,2,3,4-tetrahydroquinolin-6-yl)-3-(tert-butyl)urea], the pIC50 was less than 6.00.

In the case of `COCC1Cc2cc(NC(=O)NC(C)(C)C)ccc2N(Cc2ccccc2)C1=O` (stereo not shown) [Example 11, 1-(1-benzyl-3-(methoxymethyl)-2-oxo-1,2,3,4-tetrahydroquinolin-6-yl)-3-(tert-butyl)urea], the pIC50 was 6.00 to 7.00.

As for `CN1Cc2cc(NC(=O)NC(C)(C)C)ccc2N(Cc2ccccc2)C1=O` [Example 12, 1-(1-benzyl-3-methyl-2-oxo-1,2,3,4-tetrahydroquinazolin-6-yl)-3-(tert-butyl)urea], the pIC50 is 6.00 to 7.00.

Turning to `C[C@@H](c1ccccc1)N1C(=O)CCc2cc(NC(=O)NC(C)(C)C)ccc21` [Example 13, (S)-1-(tert-butyl)-3-(2-oxo-1-(1-phenylethyl)-1,2,3,4-tetrahydroquinolin-6-yl)urea], the pIC50 was more than 7.00.

Regarding `C[C@H](c1ccccc1)N1C(=O)CCc2cc(NC(=O)NC(C)(C)C)ccc21` [Example 14, (R)-1-(tert-butyl)-3-(2-oxo-1-(1-phenylethyl)-1,2,3,4-tetrahydroquinolin-6-yl)urea], the pIC50 was less than 6.00.

In the case of `CC1CC(=O)N(Cc2ccccc2)c2ccc(NC(=O)NC(C)(C)C)cc21` (stereo not shown) [Example 15, 1-(1-benzyl-4-methyl-2-oxo-1,2,3,4-tetrahydroquinolin-6-yl)-3-(tert-butyl)urea], the pIC50 was less than 6.00.

Take `CC(C)(CCO)NC(=O)Nc1ccc2c(c1)CCC(=O)N2Cc1ccccc1` [Example 16, 1-(1-benzyl-2-oxo-1,2,3,4-tetrahydroquinolin-6-yl)-3-(4-hydroxy-2-methylbutan-2-yl)urea]: the pIC50 was 6.00 to 7.00.

`CC(C)(C)NC(=O)Nc1ccc2c(c1)CCC(=O)N2Cc1ccc(C#N)cc1` [Example 17, 1-(tert-butyl)-3-(1-(4-cyanobenzyl)-2-oxo-1,2,3,4-tetrahydroquinolin-6-yl)urea]: the pIC50 was less than 6.00.

For the compound `CC(C)(C)NC(=O)Nc1ccc2c(c1)CCC(=O)N2Cc1cccc(C#N)c1` [Example 18, 1-(tert-butyl)-3-(1-(3-cyanobenzyl)-2-oxo-1,2,3,4-tetrahydroquinolin-6-yl)urea], the pIC50 is less than 6.00.

For `CC(C)(C)NC(=O)Nc1ccc2c(c1)CCC(=O)N2Cc1ccccc1F` [Example 19, 3-tert-butyl-1-{1-[(2-fluorophenyl)methyl]-2-oxo-3,4-dihydroquinolin-6-yl}urea], the pIC50 was more than 7.00.

For `CC(C)(C)NC(=O)Nc1ccc2c(c1)CCC(=O)N2Cc1ccccc1C#N` [Example 20, 1-(tert-butyl)-3-(1-(2-cyanobenzyl)-2-oxo-1,2,3,4-tetrahydroquinolin-6-yl)urea], the negative-log IC50 (pIC50) was more than 7.00.

In the case of `Cc1cccc(CN2C(=O)CCc3cc(NC(=O)NC(C)(C)C)ccc32)c1` [Example 21, 1-(tert-butyl)-3-(1-(3-methylbenzyl)-2-oxo-1,2,3,4-tetrahydroquinolin-6-yl)urea], the pIC50 was more than 7.00.

`COc1cccc(CN2C(=O)CCc3cc(NC(=O)NC(C)(C)C)ccc32)c1` [Example 22, 1-(tert-butyl)-3-(1-(3-methoxybenzyl)-2-oxo-1,2,3,4-tetrahydroquinolin-6-yl)urea]: the pIC50 is more than 7.00.

Consider `CC(C)(C)NC(=O)Nc1ccc2c(c1)CCC(=O)N2Cc1cccc(C(F)(F)F)c1` [Example 23, 1-(tert-butyl)-3-(2-oxo-1-(3-(trifluoromethyl)benzyl)-1,2,3,4-tetrahydroquinolin-6-yl)urea], for which the pIC50 was more than 7.00.
